Counter-ions that a name gives are not always drawn. Like-named read-outs stand apart in the source and are kept apart here. Each block holds one compound with its values, some of them ahead of it.
Key:
factor XIIa = biological target: T1, factor XIIa (Homo sapiens, UniProt P00748); test: Inhibition of factor XIIa (Ki); assay type: biochemical; details: Table 26
T1 construct: glandular kallikrein, factor XIIa and plasma kallikrein
T1 sequence (P00748 373-615 limits assumed): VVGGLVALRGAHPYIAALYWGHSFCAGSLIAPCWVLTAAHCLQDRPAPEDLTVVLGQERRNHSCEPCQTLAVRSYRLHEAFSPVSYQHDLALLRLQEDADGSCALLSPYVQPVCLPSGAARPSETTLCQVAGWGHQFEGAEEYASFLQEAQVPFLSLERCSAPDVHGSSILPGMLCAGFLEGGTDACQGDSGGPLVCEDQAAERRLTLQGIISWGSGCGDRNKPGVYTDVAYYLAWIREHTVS

glandular kallikrein = glandular kallikrein (Sus scrofa, UniProt P00752); test: Inhibition of glandular kallikrein (Ki); assay type: biochemical; details: Table 26; read-out: Ki, Gland. Kallikrein
Chain of glandular kallikrein (P00752 8-246): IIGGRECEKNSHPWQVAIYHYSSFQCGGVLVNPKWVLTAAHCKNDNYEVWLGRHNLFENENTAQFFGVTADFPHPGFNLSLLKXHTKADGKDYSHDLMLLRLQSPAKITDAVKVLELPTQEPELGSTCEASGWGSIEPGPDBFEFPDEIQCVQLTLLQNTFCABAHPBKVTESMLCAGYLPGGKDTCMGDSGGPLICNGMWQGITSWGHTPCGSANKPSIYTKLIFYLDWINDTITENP

tPA = tPA (Homo sapiens, UniProt P00750); test: Inhibition of tPA (Ki); assay type: biochemical; details: Table 26
Chain of tPA (P00750 36-562): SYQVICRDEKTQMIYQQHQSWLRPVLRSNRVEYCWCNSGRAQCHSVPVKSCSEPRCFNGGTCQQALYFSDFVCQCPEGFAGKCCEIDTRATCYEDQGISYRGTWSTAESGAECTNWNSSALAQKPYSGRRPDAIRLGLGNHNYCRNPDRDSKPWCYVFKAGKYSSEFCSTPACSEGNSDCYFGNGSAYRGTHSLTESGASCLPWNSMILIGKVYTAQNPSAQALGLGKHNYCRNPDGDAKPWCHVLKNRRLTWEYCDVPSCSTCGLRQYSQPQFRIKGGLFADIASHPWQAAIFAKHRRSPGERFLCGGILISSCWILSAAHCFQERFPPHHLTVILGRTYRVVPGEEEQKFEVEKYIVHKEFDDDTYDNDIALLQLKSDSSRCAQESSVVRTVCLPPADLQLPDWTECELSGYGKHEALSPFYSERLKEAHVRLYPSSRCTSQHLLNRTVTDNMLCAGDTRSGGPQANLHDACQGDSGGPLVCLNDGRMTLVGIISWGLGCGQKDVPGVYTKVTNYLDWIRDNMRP

plasma kallikrein = biological target: T2, plasma kallikrein (Homo sapiens, UniProt P03952); test: Inhibition of plasma kallikrein (Ki); assay type: biochemical; details: Table 26
T2 construct: glandular kallikrein, factor XIIa and plasma kallikrein
T2 sequence (P03952 391-638 limits assumed, species assumed): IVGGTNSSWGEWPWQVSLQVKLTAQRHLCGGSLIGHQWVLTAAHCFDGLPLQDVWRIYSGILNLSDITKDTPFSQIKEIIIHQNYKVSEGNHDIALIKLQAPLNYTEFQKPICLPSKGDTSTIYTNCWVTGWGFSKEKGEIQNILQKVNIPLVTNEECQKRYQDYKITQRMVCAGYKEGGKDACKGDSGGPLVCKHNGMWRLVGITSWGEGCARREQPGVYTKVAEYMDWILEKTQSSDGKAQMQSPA
T2 sequence (P03952 20-390 partner limits assumed, species assumed): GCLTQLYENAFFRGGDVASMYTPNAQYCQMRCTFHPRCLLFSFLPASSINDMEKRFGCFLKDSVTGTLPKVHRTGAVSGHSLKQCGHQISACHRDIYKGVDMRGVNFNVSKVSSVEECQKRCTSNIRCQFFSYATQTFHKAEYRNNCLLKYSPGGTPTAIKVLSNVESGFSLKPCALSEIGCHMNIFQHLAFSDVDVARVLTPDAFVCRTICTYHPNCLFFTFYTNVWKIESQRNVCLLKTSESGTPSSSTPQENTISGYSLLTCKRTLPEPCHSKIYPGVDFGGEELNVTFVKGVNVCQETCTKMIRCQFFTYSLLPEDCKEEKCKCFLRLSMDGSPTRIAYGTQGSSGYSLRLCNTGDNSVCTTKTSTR

in vivo = details: mouse
plasmin = biological target: T3, plasmin (Homo sapiens, UniProt P00747); test: Inhibition of plasmin (Ki); assay type: biochemical; details: Table 26
T3 construct: trypsin and the related enzymes thrombin, plasmin, factor Xa, tPA
T3 sequence (P00747 581-810 limits assumed): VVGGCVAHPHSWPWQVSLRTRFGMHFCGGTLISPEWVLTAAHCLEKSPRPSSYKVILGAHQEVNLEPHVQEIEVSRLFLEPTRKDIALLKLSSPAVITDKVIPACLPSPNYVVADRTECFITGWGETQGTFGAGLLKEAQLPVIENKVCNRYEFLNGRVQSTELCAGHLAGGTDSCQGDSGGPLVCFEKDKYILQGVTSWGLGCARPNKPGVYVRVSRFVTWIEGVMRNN
T3 sequence (P00747 97-580 partner limits assumed): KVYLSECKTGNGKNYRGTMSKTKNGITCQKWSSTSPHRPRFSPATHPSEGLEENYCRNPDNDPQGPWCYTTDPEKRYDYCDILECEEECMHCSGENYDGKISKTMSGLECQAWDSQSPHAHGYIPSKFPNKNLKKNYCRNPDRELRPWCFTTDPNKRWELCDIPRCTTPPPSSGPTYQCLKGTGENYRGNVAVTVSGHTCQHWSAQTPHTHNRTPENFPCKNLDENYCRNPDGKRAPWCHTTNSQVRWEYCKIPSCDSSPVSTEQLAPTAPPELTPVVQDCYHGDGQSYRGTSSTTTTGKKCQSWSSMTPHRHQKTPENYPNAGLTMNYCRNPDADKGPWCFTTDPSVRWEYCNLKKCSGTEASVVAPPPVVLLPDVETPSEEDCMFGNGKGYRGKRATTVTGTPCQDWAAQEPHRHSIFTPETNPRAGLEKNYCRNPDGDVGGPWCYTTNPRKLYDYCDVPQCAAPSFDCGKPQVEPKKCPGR

thrombin = thrombin (Bos taurus, UniProt P00735); test: Inhibition of thrombin (dissociation constant Ki); assay type: biochemical
factor Xa = factor Xa (Bos taurus, UniProt P00743); test: Inhibition of factor Xa (dissociation constant Ki); assay type: biochemical
Chain of factor Xa (P00743 234-492 limits assumed): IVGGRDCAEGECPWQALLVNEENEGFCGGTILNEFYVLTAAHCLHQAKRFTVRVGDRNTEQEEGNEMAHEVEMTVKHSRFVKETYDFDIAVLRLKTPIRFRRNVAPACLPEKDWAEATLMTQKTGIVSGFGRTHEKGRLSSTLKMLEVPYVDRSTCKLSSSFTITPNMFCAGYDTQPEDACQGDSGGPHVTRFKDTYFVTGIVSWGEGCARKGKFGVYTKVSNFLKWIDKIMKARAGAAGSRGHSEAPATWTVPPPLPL
Chain of factor Xa (P00743 41-180 partner limits assumed): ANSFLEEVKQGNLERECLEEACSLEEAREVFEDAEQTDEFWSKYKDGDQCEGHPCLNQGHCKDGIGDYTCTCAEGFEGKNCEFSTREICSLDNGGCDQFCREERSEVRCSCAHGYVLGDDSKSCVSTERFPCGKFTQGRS

[1] = Plasma concentration in rats after subcutaneous administration (HPLC); details: rat, plasma, sc, 5 mg/kg
trypsin = biological target: T4, trypsin (Bos taurus, UniProt P00760); test: Inhibition of trypsin (Ki); assay type: biochemical; details: Table 26
T4 sequence (P00760 24-246): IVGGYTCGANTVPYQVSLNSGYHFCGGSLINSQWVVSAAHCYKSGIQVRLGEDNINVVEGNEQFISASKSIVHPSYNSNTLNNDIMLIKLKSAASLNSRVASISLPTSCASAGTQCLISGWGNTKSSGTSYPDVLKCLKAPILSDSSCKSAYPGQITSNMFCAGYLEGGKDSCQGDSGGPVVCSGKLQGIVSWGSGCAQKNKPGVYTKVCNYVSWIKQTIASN

[2] = Plasma concentration in rats after oral administration (HPLC); details: rat, plasma, po, 100 mg/kg
Description: (§1) For the pharmacokinetic characterization, the plasma concentration of selected derivatives was determined in rats after intravenous (i.v.), subcutaneous (s.c.) and peroral (p.o.) application according to the following three-step procedure:
(§2) 1. A physiological NaCl solution of the substance to be tested was submitted to high pressure liquid chromatography (HPLC) in order to determine its characteristic substance-specific retention time with the chosen test conditions.
(§3) 2. The substance to be tested was diluted in vitro in rat plasma. This solution was also submitted to HPLC to see whether the characteristic peak of the substance once again appeared at the substance-specific retention time.
(§4) 3. […] Blood samples were taken at time intervals of 15 minutes, from which plasma samples were prepared by centrifugation; those samples were also submitted to HPLC to see whether the characteristic peak of the substance appeared again at the substance-specific retention time.

[3] = Plasma concentration in rats after intravenous administration (HPLC)
Description: as §1, §2, §3, §4

[4] = Tables 19-25, read-out: Ki, Factor Xa

Structure (SMILES): COC(=O)[C@H](Cc1cccc(C(=N)N)c1)NC(=O)CNS(=O)(=O)c1ccc(C)cc1 [TAPAM, Nα-tosylglycyl-3-amidinophenylalanine methyl ester, reference compound]
Ki (factor XIIa): 180 µM
Ki (glandular kallikrein): 0.89 mM
Ki (tPA): 27 µM
Ki (plasma kallikrein): 15 µM
LD50 at 168 h (in vivo; iv): 103 mg/kg
LD50 at 168 h (in vivo; po): > 1000 mg/kg
Ki (plasmin): 160 µM

Structure (SMILES): N=C(NO)c1cccc(CC(NS(=O)(=O)c2ccc3ccccc3c2)C(=O)N2Cc3ccccc3CC2C(=O)O)c1 (racemic) [Compound 190, N-α-(2-Naphthylsulfonyl)-3-oxamidino-(D,L)-phenylalanyl-1,2,3,4-tetrahydroisoquinoline-3-carboxylic acid hydroiodide]
Ki (thrombin): 2400 nM
Ki (factor Xa; [4]): 130 µM
Ki (factor XIIa): 460 µM
Ki (glandular kallikrein): > 1 mM
Ki (tPA): > 1000 µM
Ki (plasma kallikrein): > 1000 µM
concentration at 0.25 h [1]: 340 ng/mL
concentration at 0.5 h [1]: 330 ng/mL
concentration at 0.75 h [1]: 374 ng/mL
concentration at 1 h [1]: 492 ng/mL
concentration at 1.5 h [1]: 354 ng/mL
concentration at 2 h [1]: 270 ng/mL
concentration at 3 h [1]: 165 ng/mL
concentration at 4 h [1]: 152 ng/mL
concentration at 5 h [1]: 138 ng/mL
concentration at 6 h [1]: 126 ng/mL
LD50 at 168 h (in vivo; iv): > 150 mg/kg
LD50 at 168 h (in vivo; po): > 3000 mg/kg
Ki (trypsin): 27 µM
concentration at 0.25 h [2]: 481 ng/mL
concentration at 0.5 h [2]: 1110 ng/mL
concentration at 0.75 h [2]: 796 ng/mL
concentration at 1 h [2]: 574 ng/mL
concentration at 2 h [2]: 542 ng/mL
concentration at 3 h [2]: 217 ng/mL
concentration at 4 h [2]: 113 ng/mL
concentration at 5 h [2]: 50 ng/mL
Ki (plasmin): 120 µM
pharmacokinetic properties ([3]; in words, compared with NAPAP): improved pharmacokinetic properties
Concentration in plasma ([3]; rat, i.v. 1 mg/kg, 60 min): 0 ng/mL
concentration at 2 min ([3]; rat, plasma, iv, 1 mg/kg): 3260 ng/mL
concentration at 5 min ([3]; rat, plasma, iv, 1 mg/kg): 1610 ng/mL
concentration at 10 min ([3]; rat, plasma, iv, 1 mg/kg): 806 ng/mL
concentration at 0.25 h ([3]; rat, plasma, iv, 1 mg/kg): 496 ng/mL
concentration at 0.5 h ([3]; rat, plasma, iv, 1 mg/kg): 477 ng/mL
concentration at 0.75 h ([3]; rat, plasma, iv, 1 mg/kg): 134 ng/mL

Ki (thrombin): 340 nM
Ki (factor Xa; [4]): 180 µM
Ki (factor XIIa): 780 µM
Ki (glandular kallikrein): 0.26 mM
Ki (tPA): > 1000 µM
Ki (plasma kallikrein): > 1000 µM
Ki (plasmin): 100 µM
Structure (SMILES): CC1CCN(C(=O)C(Cc2cccc(C(=N)N)c2)NS(=O)(=O)c2cccc3cccnc23)CC1 (racemic) [Compound 171, N-α-(8-quinolinesulfonyl)-3-amidino-(D,L)-phenylalanine-4-methylpiperidide hydroiodide]

Ki (thrombin): 70 nM
Ki (factor Xa; [4]): 46 µM
Ki (factor XIIa): 500 µM
Ki (glandular kallikrein): > 1 mM
Ki (tPA): 220 µM
Ki (plasma kallikrein): 35 µM
Ki (plasmin): 10.5 µM
Structure (SMILES): COC(=O)C1CCCCN1C(=O)C(Cc1cccc(C(=N)N)c1)NS(=O)(=O)c1ccc2ccccc2c1 (racemic) [Compound 94]

Ki (thrombin): 8900 nM
Ki (factor Xa; [4]): 210 µM
Ki (factor XIIa): 270 µM
Ki (glandular kallikrein): > 1 mM
Ki (tPA): > 1000 µM
Ki (plasma kallikrein): > 1000 µM
Ki (trypsin): > 1000 µM
Ki (plasmin): > 1000 µM
Structure (SMILES): CC1CCN(C(=O)C(Cc2cccc(N)c2)NS(=O)(=O)c2ccc3ccccc3c2)CC1 (racemic) [Compound 203]

Ki (thrombin): 400 nM
Ki (factor Xa; [4]): 107 µM
Ki (factor XIIa): > 1000 µM
Ki (glandular kallikrein): > 1 mM
Ki (tPA): > 1000 µM
Ki (plasma kallikrein): > 1000 µM
Ki (trypsin): 4.1 µM
Ki (plasmin): 17 µM
Structure (SMILES): N=C(N)Nc1cccc(CC(NS(=O)(=O)c2ccc3ccccc3c2)C(=O)N2CCCCC2)c1 (racemic) [Compound 207, N-α-(2-Naphthylsulfonyl)-3-quanidino-(D,L)-phenylalanine-piperidide hydrochloride]

Structure (SMILES): CN1CCN(C(=O)C(Cc2cccc(C(=N)N)c2)NS(=O)(=O)c2ccc3ccccc3c2)CC1 (racemic) [Compound 35]
Ki (factor Xa): 30 µM
Ki (factor XIIa): > 1000 µM
Ki (glandular kallikrein): > 1 mM
Ki (tPA): 430 µM
Ki (plasma kallikrein): 85 µM
Ki (plasmin): 31 µM

From patent US5518735A, “Meta-substituted phenylalanine derivatives” (priority 1990, dated 1996)
